{
  "source": "patent EP0435682A2",
  "about": "“The use of inclusion complexes of prostaglandins with cyclodextrins in the treatment of ocular hypertension” (ALLERGAN, INC., priority 1989, dated 1991)",
  "tested_on": "New Zealand Albino rabbits",
  "test": "Intraocular pressure by applanation pneumatonometry after topical application to one eye",
  "type": "in vivo",
  "conditions": "0.1% (w/v) solution, 25 µl to the surface of one eye",
  "procedure": "Prostaglandin F2α TRIS salt was dissolved in either distilled water or in a 5% aqueous hydroxypropyl-β-cyclodextrin solution, to provide 0.1% (w/v) solutions. Two groups of experimental New Zealand Albino rabbits, containing 6 and 8 rabbits, respectively, were treated by administering 25µℓ of each solution to the surface of one eye. The contralateral eye received vehicle as a control. Intraocular pressure (IOP) was measured by applanation pneumatonometry model (Model 3ORT, manufactured by Digilab) at the time of administration, and at intervals of 1, 2, 3, 4, and 6 hours thereafter.",
  "note": "Marks after values point to notes of the source that are not given here.",
  "data": [
    {"substance": "Prostaglandin F2α TRIS salt [Prostaglandin F2α (in aqueous)]", "values": [
      {"measurement": "CHANGES IN INTRAOCULAR PRESSURE (mmHg) AT PREDETERMINED TIMES (HR)", "setting": "1.0 HR after administration", "value": "-6.3* mmHg"},
      {"measurement": "CHANGES IN INTRAOCULAR PRESSURE (mmHg) AT PREDETERMINED TIMES (HR)", "setting": "2.0 HR after administration", "value": -3.0, "unit": "mmHg"},
      {"measurement": "CHANGES IN INTRAOCULAR PRESSURE (mmHg) AT PREDETERMINED TIMES (HR)", "setting": "3.0 HR after administration", "value": -3.0, "unit": "mmHg"},
      {"measurement": "CHANGES IN INTRAOCULAR PRESSURE (mmHg) AT PREDETERMINED TIMES (HR)", "setting": "4.0 HR after administration", "value": -1.5, "unit": "mmHg"},
      {"measurement": "CHANGES IN INTRAOCULAR PRESSURE (mmHg) AT PREDETERMINED TIMES (HR)", "setting": "6.0 HR after administration", "value": 0, "unit": "mmHg"}
    ]}
  ]
}
